The values that follow are results of earlier work, collected in patent US20070196500A1, “Composition for oral administration of tamsulosin hydrochloride and controlled release granule formulation comprising same” (priority 2004, published 2007).

Molecules are shown by their SMILES. Structures can show the parent of a compound that is named as a salt.

For the compound `CCOc1ccccc1OCCN[C@H](C)Cc1ccc(OC)c(S(N)(=O)=O)c1` [Tamsulosin hydrochloride, tamsulosin hydrochloride], the water-solubility entry is given as “low water-solubility”.
